Test results reported in article PMC5218480 (PLoS ONE, 2017).

System: MV-4-11 cells
Experiment: Gene expression microarray analysis (Affymetrix PrimeView) and GSEA
Assay type: cell-based, human
Design: RFU PODN (11730768_x_at) / Fold change /veh PODN (11730768_x_at) / RFU LINC00158 (11744669_a_at) / Fold change /veh LINC00158 (11744669_a_at) / RFU DUSP10 (11751237_a_at) / Fold change /veh DUSP10 (11751237_a_at) / RFU ID3 (11757404_x_at) / Fold change /veh ID3 (11757404_x_at) / RFU PLEKHG5 (11737974_s_at) / Fold change /veh PLEKHG5 (11737974_s_at) / RFU LRRC4B (11730491_at) / Fold change /veh LRRC4B (11730491_at) / RFU GIMAP4 (11747438_a_at) / Fold change /veh GIMAP4 (11747438_a_at) / RFU KRT8 (11758183_x_at) / Fold change /veh KRT8 (11758183_x_at) / RFU CNN1 (11734310_a_at) / Fold change /veh CNN1 (11734310_a_at) / RFU VPS37D (11726825_at) / Fold change /veh VPS37D (11726825_at) / RFU C10orf10 (11716522_x_at) / Fold change /veh C10orf10 (11716522_x_at) / RFU KIR2DL2 /// KIR2DL4 /// KIR2DL5A /// KIR2DL5B /// KIR2DS1 /// KIR2DS2 /// KIR2DS3 /// KIR2DS4 /// KIR3DL3 /// KIR3DL3 /// KIR3DS1 (11738374_at) / Fold change /veh KIR2DL2 /// KIR2DL4 /// KIR2DL5A /// KIR2DL5B /// KIR2DS1 /// KIR2DS2 /// KIR2DS3 /// KIR2DS4 /// KIR3DL3 /// KIR3DL3 /// KIR3DS1 (11738374_at) / RFU C1QL1 (11718748_at) / Fold change /veh C1QL1 (11718748_at) / RFU TMPRSS4 (11747572_a_at) / Fold change /veh TMPRSS4 (11747572_a_at) / RFU HAMP (11756126_x_at) / Fold change /veh HAMP (11756126_x_at) / RFU RNFT2 (11725882_a_at) / Fold change /veh RNFT2 (11725882_a_at) / RFU NR4A2 (11747474_a_at) / Fold change /veh NR4A2 (11747474_a_at) / RFU ABCC12 (11746883_a_at) / Fold change /veh ABCC12 (11746883_a_at) / RFU TMEM136 (11760407_x_at) / Fold change /veh TMEM136 (11760407_x_at) / RFU CLDN22 /// WWC2 (11732394_at) / Fold change /veh CLDN22 /// WWC2 (11732394_at) / RFU HLA-DPB1 (11760878_x_at) / Fold change /veh HLA-DPB1 (11760878_x_at) / RFU SPINT1 (11716480_a_at) / Fold change /veh SPINT1 (11716480_a_at) / RFU GAP43 (11754022_s_at) / Fold change /veh GAP43 (11754022_s_at) / RFU A4GNT (11735810_at) / Fold change /veh A4GNT (11735810_at) / RFU PRB3 (11715151_x_at) / Fold change /veh PRB3 (11715151_x_at) / RFU TUBB4B (11761932_at) / Fold change /veh TUBB4B (11761932_at) / RFU CAPN14 (11732068_a_at) / Fold change /veh CAPN14 (11732068_a_at) / RFU TMCC2 (11721928_a_at) / Fold change /veh TMCC2 (11721928_a_at) / RFU IRGQ (11745062_a_at) / Fold change /veh IRGQ (11745062_a_at) / RFU FAM174B (11720279_a_at) / Fold change /veh FAM174B (11720279_a_at) / RFU TMPRSS4 (11748680_a_at) / Fold change /veh TMPRSS4 (11748680_a_at) / RFU FAM212B (11763350_a_at) / Fold change /veh FAM212B (11763350_a_at) / RFU PLEKHG5 (11743358_a_at) / Fold change /veh PLEKHG5 (11743358_a_at) / RFU ZSCAN30 (11745921_a_at) / Fold change /veh ZSCAN30 (11745921_a_at) / RFU CMKLR1 (11741424_a_at) / Fold change /veh CMKLR1 (11741424_a_at) / RFU LOC101060620 /// MAPK8IP1 (11723275_at) / Fold change /veh LOC101060620 /// MAPK8IP1 (11723275_at) / RFU SPTSSB (11747773_x_at) / Fold change /veh SPTSSB (11747773_x_at) / RFU PRSS12 (11739890_at) / Fold change /veh PRSS12 (11739890_at) / RFU BIN1 (11741810_x_at) / Fold change /veh BIN1 (11741810_x_at) / RFU WNT11 (11732464_a_at) / Fold change /veh WNT11 (11732464_a_at) / RFU C10orf10 (11716521_a_at) / Fold change /veh C10orf10 (11716521_a_at) / RFU C5orf56 (11738089_at) / Fold change /veh C5orf56 (11738089_at) / RFU CYB561 (11721691_x_at) / Fold change /veh CYB561 (11721691_x_at) / RFU ANKRD19P (11752326_a_at) / Fold change /veh ANKRD19P (11752326_a_at) / RFU OR2T12 /// OR2T33 /// OR2T8 (11738714_s_at) / Fold change /veh OR2T12 /// OR2T33 /// OR2T8 (11738714_s_at) / RFU VCAN (11748164_a_at) / Fold change /veh VCAN (11748164_a_at) / RFU JSRP1 (11732532_at) / Fold change /veh JSRP1 (11732532_at) / RFU KRTAP10-11 (11738290_x_at) / Fold change /veh KRTAP10-11 (11738290_x_at) / RFU MYO3A (11730013_a_at) / Fold change /veh MYO3A (11730013_a_at) / RFU EBF3 (11725865_a_at) / Fold change /veh EBF3 (11725865_a_at) / RFU CAMK2N1 (11719241_x_at) / Fold change /veh CAMK2N1 (11719241_x_at) / RFU C5orf56 (11738088_a_at) / Fold change /veh C5orf56 (11738088_a_at) / RFU OLFML3 (11715873_a_at) / Fold change /veh OLFML3 (11715873_a_at) / RFU LOC100653217 /// NTM (11731650_a_at) / Fold change /veh LOC100653217 /// NTM (11731650_a_at) / RFU MAPK11 (11762145_a_at) / Fold change /veh MAPK11 (11762145_a_at) / RFU FIZ1 (11724087_x_at) / Fold change /veh FIZ1 (11724087_x_at) / RFU OASL (11726364_x_at) / Fold change /veh OASL (11726364_x_at) / RFU SOX15 (11748057_x_at) / Fold change /veh SOX15 (11748057_x_at) / RFU CD79A (11719716_a_at) / Fold change /veh CD79A (11719716_a_at) / RFU HIST1H1D (11736915_at) / Fold change /veh HIST1H1D (11736915_at) / RFU CASKIN2 (11723855_a_at) / Fold change /veh CASKIN2 (11723855_a_at) / RFU LOC730098 (11760151_x_at) / Fold change /veh LOC730098 (11760151_x_at) / RFU OR4N2 (11742367_at) / Fold change /veh OR4N2 (11742367_at) / RFU PRRT2 (11749266_a_at) / Fold change /veh PRRT2 (11749266_a_at) / RFU SNX32 (11753110_a_at) / Fold change /veh SNX32 (11753110_a_at) / RFU CDHR5 (11726645_a_at) / Fold change /veh CDHR5 (11726645_a_at) / RFU RCAN1 (11760418_a_at) / Fold change /veh RCAN1 (11760418_a_at) / RFU FAM167A (11723789_a_at) / Fold change /veh FAM167A (11723789_a_at) / RFU FAM26E (11764081_at) / Fold change /veh FAM26E (11764081_at) / RFU ISYNA1 (11749810_s_at) / Fold change /veh ISYNA1 (11749810_s_at) / RFU ACY1 (11761880_at) / Fold change /veh ACY1 (11761880_at) / RFU 11764098_at / Fold change /veh 11764098_at / RFU SAMD14 (11745864_x_at) / Fold change /veh SAMD14 (11745864_x_at) / RFU NPB (11741838_a_at) / Fold change /veh NPB (11741838_a_at) / RFU TMPRSS6 (11731388_a_at) / Fold change /veh TMPRSS6 (11731388_a_at) / RFU KRTAP10-2 (11738614_at) / Fold change /veh KRTAP10-2 (11738614_at) / RFU ARHGAP8 /// PRR5-ARHGAP8 (11727945_x_at) / Fold change /veh ARHGAP8 /// PRR5-ARHGAP8 (11727945_x_at) / RFU KRTAP5-7 /// NADSYN1 (11734609_at) / Fold change /veh KRTAP5-7 /// NADSYN1 (11734609_at) / RFU RASL12 (11751679_a_at) / Fold change /veh RASL12 (11751679_a_at) / RFU CDKN2B (11736163_a_at) / Fold change /veh CDKN2B (11736163_a_at) / RFU PRF1 (11729649_at) / Fold change /veh PRF1 (11729649_at) / RFU, ZNF638 /// ZNF638-IT1 / Fold change vs veh, ZNF638 /// ZNF638-IT1 / RFU, PANK3 / Fold change vs veh, PANK3 / RFU, SH3YL1 / Fold change vs veh, SH3YL1 / RFU, ZEB2 / Fold change vs veh, ZEB2 / RFU, NRIP1 / Fold change vs veh, NRIP1 / RFU, PTTG1IP / Fold change vs veh, PTTG1IP / RFU, CAPN2 / Fold change vs veh, CAPN2 / RFU, MED14 / Fold change vs veh, MED14 / RFU, SNORA58 / Fold change vs veh, SNORA58 / RFU, C1orf63 / Fold change vs veh, C1orf63 / RFU, LRRFIP1 / Fold change vs veh, LRRFIP1 / RFU, NDUFAF7 / Fold change vs veh, NDUFAF7 / RFU, SLC12A2 / Fold change vs veh, SLC12A2 / RFU, IBTK / Fold change vs veh, IBTK / RFU, ESF1 / Fold change vs veh, ESF1 / Fold change vs veh, TMEM50B / RFU, TAOK1 / Fold change vs veh, TAOK1 / RFU, ACBD3 / Fold change vs veh, ACBD3 / RFU, TMA16 / Fold change vs veh, TMA16 / RFU, RWDD3 / Fold change vs veh, RWDD3 / RFU, BCAT1 / Fold change vs veh, BCAT1 / RFU, EDEM3 / Fold change vs veh, EDEM3 / RFU, TMEM33 / Fold change vs veh, TMEM33 / RFU, WDR75 / Fold change vs veh, WDR75 / RFU, AHCTF1 / Fold change vs veh, AHCTF1 / RFU, TFRC / Fold change vs veh, TFRC / RFU, ZDHHC17 / Fold change vs veh, ZDHHC17 / RFU, NOM1 / Fold change vs veh, NOM1 / RFU, ARL8B / Fold change vs veh, ARL8B / RFU, ZBTB11 / Fold change vs veh, ZBTB11 / RFU, TAMM41 / Fold change vs veh, TAMM41 / RFU, KIAA1704 /// LOC100996395 / Fold change vs veh, KIAA1704 /// LOC100996395 / RFU, ING1 / Fold change vs veh, ING1 / RFU, TRMT61B / Fold change vs veh, TRMT61B / RFU, FUBP3 / Fold change vs veh, FUBP3 / RFU, TP53 / Fold change vs veh, TP53 / RFU, TNKS2 / Fold change vs veh, TNKS2 / RFU, ZFP14 / Fold change vs veh, ZFP14 / RFU, ACTR2 / Fold change vs veh, ACTR2 / RFU, PPP3R1 / Fold change vs veh, PPP3R1 / RFU, PIK3R1 / Fold change vs veh, PIK3R1 / RFU, HNRNPA1 / Fold change vs veh, HNRNPA1 / RFU, RNF170 / Fold change vs veh, RNF170 / RFU, ZNF28 / Fold change vs veh, ZNF28 / RFU, RNGTT / Fold change vs veh, RNGTT / RFU, OGT / Fold change vs veh, OGT / RFU, BRD1 / Fold change vs veh, BRD1 / RFU, MARS / Fold change vs veh, MARS / RFU, ZNF655 / Fold change vs veh, ZNF655 / RFU, FAHD1 / Fold change vs veh, FAHD1 / RFU, BDP1 / Fold change vs veh, BDP1 / RFU, LRRCC1 / Fold change vs veh, LRRCC1 / RFU, ARID1A / Fold change vs veh, ARID1A / RFU, ZNF146 / Fold change vs veh, ZNF146 / RFU, ZNF330 / Fold change vs veh, ZNF330 / RFU, GPN3 / Fold change vs veh, GPN3 / RFU, C9orf123 / Fold change vs veh, C9orf123 / RFU, N4BP2L2 / Fold change vs veh, N4BP2L2 / RFU, ARFIP1 / Fold change vs veh, ARFIP1 / RFU, FAM179B / Fold change vs veh, FAM179B / RFU, BCL10 / Fold change vs veh, BCL10 / RFU, UHRF1BP1L / Fold change vs veh, UHRF1BP1L / RFU, BET1 / Fold change vs veh, BET1 / RFU, CNOT2 / Fold change vs veh, CNOT2 / RFU, ZNF268 / Fold change vs veh, ZNF268 / Fold change vs veh, ZNF507 / RFU, DGCR2 / Fold change vs veh, DGCR2 / RFU, WDSUB1 / Fold change vs veh, WDSUB1 / Fold change vs veh, HSP90B1 /// MIR3652 / RFU, ADSS / Fold change vs veh, ADSS / RFU, GK / Fold change vs veh, GK / RFU, ZNF148 / Fold change vs veh, ZNF148 / RFU, TAF9 / Fold change vs veh, TAF9 / RFU, SLC1A5 / Fold change vs veh, SLC1A5 / RFU, SLMO2 / Fold change vs veh, SLMO2 / RFU, ABCC4 / Fold change vs veh, ABCC4 / RFU, LOC101060439 /// RAP1B / Fold change vs veh, LOC101060439 /// RAP1B / RFU, RFX7 / Fold change vs veh, RFX7 / RFU, GTPBP10 / Fold change vs veh, GTPBP10 / RFU, CNEP1R1 / Fold change vs veh, CNEP1R1 / RFU, BIVM-ERCC5 /// ERCC5 / Fold change vs veh, BIVM-ERCC5 /// ERCC5 / RFU, ILF3 / Fold change vs veh, ILF3 / RFU 11762660_at / Fold change /veh 11762660_at / RFU VCAN (11757783_s_at) / Fold change /veh VCAN (11757783_s_at) / RFU DDX43 (11728927_at) / Fold change /veh DDX43 (11728927_at) / RFU KRT8 (11758188_x_at) / Fold change /veh KRT8 (11758188_x_at) / RFU NKD1 (11759106_at) / Fold change /veh NKD1 (11759106_at) / RFU SRD5A1 (11742802_a_at) / Fold change /veh SRD5A1 (11742802_a_at) / RFU TPSAB1 /// TPSB2 (11721975_s_at) / Fold change /veh TPSAB1 /// TPSB2 (11721975_s_at) / RFU GSTM3 (11746129_a_at) / Fold change /veh GSTM3 (11746129_a_at) / RFU IL23R (11737362_x_at) / Fold change /veh IL23R (11737362_x_at) / RFU TMEM51 (11727254_a_at) / Fold change /veh TMEM51 (11727254_a_at) / RFU PIWIL2 (11732686_x_at) / Fold change /veh PIWIL2 (11732686_x_at) / RFU ORM1 (11744905_x_at) / Fold change /veh ORM1 (11744905_x_at) / RFU CCDC152 (11743942_at) / Fold change /veh CCDC152 (11743942_at) / RFU ECM1 (11717891_a_at) / Fold change /veh ECM1 (11717891_a_at) / RFU IL23R (11748794_a_at) / Fold change /veh IL23R (11748794_a_at) / RFU TNFAIP8L3 (11732012_x_at) / Fold change /veh TNFAIP8L3 (11732012_x_at) / RFU MBOAT4 (11741988_at) / Fold change /veh MBOAT4 (11741988_at) / RFU 11764193_at / Fold change /veh 11764193_at / RFU TMEM53 (11763286_at) / Fold change /veh TMEM53 (11763286_at) / RFU MAGEB2 (11727129_at) / Fold change /veh MAGEB2 (11727129_at) / RFU TMEM200A (11744735_a_at) / Fold change /veh TMEM200A (11744735_a_at) / RFU CCDC152 (11751479_a_at) / Fold change /veh CCDC152 (11751479_a_at) / RFU FAM211A (11726209_a_at) / Fold change /veh FAM211A (11726209_a_at) / RFU RGS16 (11746705_a_at) / Fold change /veh RGS16 (11746705_a_at) / RFU VCAN (11755009_s_at) / Fold change /veh VCAN (11755009_s_at) / RFU RHOB (11743442_s_at) / Fold change /veh RHOB (11743442_s_at) / RFU RGS16 (11720943_a_at) / Fold change /veh RGS16 (11720943_a_at) / RFU RGS16 (11720944_at) / Fold change /veh RGS16 (11720944_at) / RFU, VPS4B / Fold change vs veh, VPS4B / RFU, CREB1 / Fold change vs veh, CREB1 / RFU, DNAJC13 / Fold change vs veh, DNAJC13 / RFU, GNAQ / Fold change vs veh, GNAQ / RFU, CDK5R1 / Fold change vs veh, CDK5R1 / RFU, ZRANB3 / Fold change vs veh, ZRANB3 / RFU, CUL4A / Fold change vs veh, CUL4A / RFU, CCNY / Fold change vs veh, CCNY / RFU, UFL1 / Fold change vs veh, UFL1 / RFU, COG3 / Fold change vs veh, COG3 / RFU, DIAPH2 / Fold change vs veh, DIAPH2 / RFU, SKA2 / Fold change vs veh, SKA2 / RFU, AFF3 / Fold change vs veh, AFF3 / RFU, LMF1 / Fold change vs veh, LMF1 / RFU, IPO11 / Fold change vs veh, IPO11 / RFU, DFFB / Fold change vs veh, DFFB / RFU, FOXP1 / Fold change vs veh, FOXP1 / RFU, CARD8 / Fold change vs veh, CARD8 / RFU, STRN3 / Fold change vs veh, STRN3 / RFU, ADK / Fold change vs veh, ADK / RFU, RASSF2 / Fold change vs veh, RASSF2 / RFU, WIPF1 / Fold change vs veh, WIPF1 / RFU, LARP1B / Fold change vs veh, LARP1B / RFU, RASA1 / Fold change vs veh, RASA1 / RFU, RB1 / Fold change vs veh, RB1 / RFU, PPFIA1 / Fold change vs veh, PPFIA1 / RFU, MAT2A / Fold change vs veh, MAT2A / RFU, CCT5 / Fold change vs veh, CCT5 / RFU, WDR92 / Fold change vs veh, WDR92 / RFU, CUX1 / Fold change vs veh, CUX1 / RFU, TTC7A / Fold change vs veh, TTC7A / RFU, TMEM135 / Fold change vs veh, TMEM135 / RFU, DEPTOR / Fold change vs veh, DEPTOR / RFU, CPM / Fold change vs veh, CPM / RFU, DNAJB6 / Fold change vs veh, DNAJB6 / RFU, CACNA2D3 / Fold change vs veh, CACNA2D3 / RFU, DTX4 / Fold change vs veh, DTX4 / RFU, TFCP2 / Fold change vs veh, TFCP2 / RFU, GMCL1 /// GMCL1P1 / Fold change vs veh, GMCL1 /// GMCL1P1 / RFU, AEBP2 / Fold change vs veh, AEBP2 / RFU, SNHG1 /// SNORD22 /// SNORD25 /// SNORD26 /// SNORD27 /// SNORD28 /// SNORD29 /// SNORD31 / Fold change vs veh, SNHG1 /// SNORD22 /// SNORD25 /// SNORD26 /// SNORD27 /// SNORD28 /// SNORD29 /// SNORD31 / Fold change (Aza/veh), C12orf56 (ProbeSet 11735607_a_at) / Fold change (ACY-1035/veh), C12orf56 (ProbeSet 11735607_a_at) / Fold change (Aza/veh), FGFR1OP (ProbeSet 11751329_s_at) / Fold change (ACY-1035/veh), FGFR1OP (ProbeSet 11751329_s_at) / Fold change (Aza/veh), VPS36 (ProbeSet 11739960_a_at) / Fold change (ACY-1035/veh), VPS36 (ProbeSet 11739960_a_at) / RFU SYPL1 (11715823_x_at) / Fold change /veh SYPL1 (11715823_x_at) / RFU IGFBP7 (11715501_s_at) / Fold change /veh IGFBP7 (11715501_s_at) / RFU REEP3 (11722064_at) / Fold change /veh REEP3 (11722064_at) / RFU IGLL1 (11728026_x_at) / Fold change /veh IGLL1 (11728026_x_at): dose or concentration left out as unconfirmed
Conditions: ProbeSet 11750457_a_at; LIST B

Nc1ccc(-c2cccs2)cc1NC(=O)c1ccc2c(c1)cc(C1CC1)n2CCN1CCOCC1 [ACY-1035]
RFU, GTPBP10: 30.83 RFU
